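Growth conditions: 96-well plates. Treatment: test compound, 48 hours, 5 concentrations. Analysis: linear interpolation between bracketing concentrations; unreached endpoints set to highest concentration. Abbreviation: GI50, concentration required for 50% inhibition of growth. TGI: concentration producing complete growth inhibition.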
Columns and labels:
Test in all cases: growth of human tumour cells (NCI), 48 h
MOLT-4 leukemia = tested on: MOLT-4 leukemia
PC-3 prostate = tested on: PC-3 prostate
OVCAR-4 ovarian = tested on: OVCAR-4 ovarian
SNB-75 CNS = tested on: SNB-75 CNS
OVCAR-8 ovarian = tested on: OVCAR-8 ovarian
OVCAR-5 ovarian = tested on: OVCAR-5 ovarian
HS 578T breast = tested on: HS 578T breast
HCT-116 colon = tested on: HCT-116 colon
MDA-MB-231 breast = tested on: MDA-MB-231 breast
TK-10 renal = tested on: TK-10 renal

| SMILES | TGI (MOLT-4 leukemia) | TGI (PC-3 prostate) | TGI (OVCAR-4 ovarian) | TGI (SNB-75 CNS) | TGI (OVCAR-8 ovarian) | TGI (OVCAR-5 ovarian) | TGI (HS 578T breast) | TGI (HCT-116 colon) | TGI (MDA-MB-231 breast) | GI50 (MOLT-4 leukemia) | GI50 (PC-3 prostate) | GI50 (TK-10 renal) | TGI (TK-10 renal) | GI50 (OVCAR-4 ovarian) | GI50 (SNB-75 CNS) | GI50 (OVCAR-8 ovarian) | GI50 (OVCAR-5 ovarian) | GI50 (HS 578T breast) | GI50 (MDA-MB-231 breast) | GI50 (HCT-116 colon) |
| --- | --- | --- | --- | --- | --- | --- | --- | --- | --- | --- | --- | --- | --- | --- | --- | --- | --- | --- | --- | --- |
| Oc1cc(Cc2ccccc2)c(Cc2ccccc2)cc1O | > 10 µM | > 10 µM | > 10 µM | > 10 µM | > 10 µM | > 10 µM | > 10 µM | > 10 µM | > 10 µM |  |  |  |  |  |  |  |  |  |  |  |
| COc1cc(C2c3c(ccc4ccccc34)C(=O)C3CCC(=O)N32)cc(OC)c1OC (stereo not drawn) | > 50 µM | > 50 µM | > 50 µM | > 50 µM | > 50 µM | > 50 µM | > 50 µM | > 50 µM | > 50 µM |  |  |  |  |  |  |  |  |  |  |  |
| CN1CCC(CNc2cc(C3(C(=O)Nc4cc(C(=O)Nc5ccc(Cl)c(C(F)(F)F)c5)ccc4F)CC3)ncn2)CC1 | 6.09 µM | 3.3 µM | 39.5 µM | 2.86 µM | 14.9 µM | 11.4 µM | 6.19 µM |  | 2.99 µM | 2.03 µM | 1.04 µM | 3.89 µM | 12.8 µM | 13.6 µM | 0.955 µM | 3.72 µM | 3.28 µM | 1.99 µM | 1.42 µM |  |
| CCNCCNC(=O)c1ccc(I)cc1 | > 100 µM | > 100 µM | > 100 µM | > 100 µM | > 100 µM | > 100 µM | > 100 µM |  |  |  |  |  | > 100 µM |  |  |  |  |  |  |  |
| C1=C(c2ccccc2)SC(N2CCCCC2)S1 (stereo not drawn) | > 100 µM |  | > 100 µM | > 100 µM |  | > 100 µM |  | > 100 µM |  |  |  |  | > 100 µM |  |  |  |  |  |  |  |
| N=C1C(=N)c2ccccc2-c2ccccc21.[Cl-].[Ru+2].c1ccc(-c2ccccn2)nc1.c1ccc(-c2ccccn2)nc1 | > 100 µM |  | > 100 µM | > 100 µM | > 100 µM | > 100 µM |  | > 100 µM |  |  |  |  | > 100 µM |  |  |  |  |  |  |  |
| COC1=NCc2ccccc2-c2ccccc21 | > 100 µM |  | > 100 µM | > 100 µM | > 100 µM |  |  | > 100 µM |  |  |  |  | > 100 µM |  |  |  |  |  |  |  |
| C=CCSC1=N/C(=C\c2ccc(Cl)cc2)C(=O)N1CC=C |  | 54.2 µM | 94.7 µM |  | > 100 µM | > 100 µM | > 100 µM | > 100 µM | > 100 µM |  |  |  | > 100 µM |  |  |  |  |  |  |  |
| CCCCCOc1ccc(C=Nc2ccc(CCc3ccc(N=Cc4ccc(OCCCCC)cc4)cc3)cc2)cc1 | > 100 µM |  | > 100 µM | > 100 µM | > 100 µM | > 100 µM |  | > 100 µM |  |  |  |  |  |  |  |  |  |  |  |  |
| Cc1ccc2c(c1)-c1nc(N)c(C#N)c(-c3ccc(Cl)cc3)c1CCS2(=O)=O |  | > 100 µM | > 100 µM | > 100 µM | > 100 µM |  | > 100 µM | > 100 µM | > 100 µM |  |  |  | > 100 µM |  |  |  |  |  |  |  |
| CC1CC[C@@]2(OC1)OC1C[C@H]3[C@@H]4CC=C5CC(OC6OC(CO)C(OC7OC(CO)C(O)C(OC8OCC(O)C(O)C8O)C7OC7OC(CO)C(OC8OC(C)C(OC9OC(C)C(O)C(O)C9O)C(O)C8O)C(O)C7O)C(O)C6O)CCC5(C)[C@H]4CCC3(C)C1[C@@H]2C (stereo partly drawn) | 24.7 µM | 11.7 µM | 12.8 µM |  | 19.4 µM | 14.3 µM | 17.8 µM | 15.3 µM | 11.9 µM |  |  |  | 15.8 µM |  |  |  |  |  |  |  |
| COC1CC(N)(c2ccccc2)C(O)C(C)O1 (stereo not drawn) | > 100 µM | > 100 µM | > 100 µM | > 100 µM | > 100 µM | > 100 µM | > 100 µM | > 100 µM | > 100 µM |  |  |  |  |  |  |  |  |  |  |  |
| NC(=O)Nc1c(Cl)cc(S(N)(=O)=O)cc1Cl | > 100 µM |  | > 100 µM | > 100 µM | > 100 µM | > 100 µM | > 100 µM | > 100 µM | > 100 µM |  |  |  | > 100 µM |  |  |  |  |  |  |  |
| C=CCC1(C#N)C(=S)NC2=C(C(=O)CC(C)(C)C2)C1c1ccccc1 (stereo not drawn) | > 100 µM | > 100 µM | 88.9 µM | 74.8 µM | 53.1 µM | > 100 µM |  | > 100 µM | > 100 µM |  |  |  |  |  |  |  |  |  |  |  |
| CCOC(=O)C(C#N)(Cc1c[nH]c2ccccc12)NC(C)=O (stereo not drawn) | > 100 µM |  | > 100 µM | > 100 µM | > 100 µM | > 100 µM |  | > 100 µM |  |  |  |  | > 100 µM |  |  |  |  |  |  |  |
| O=C(O)CC(Cc1ccccc1Cl)C(=O)O (stereo not drawn) | > 100 µM | > 100 µM | > 100 µM |  | > 100 µM | > 100 µM | > 100 µM | > 100 µM | > 100 µM |  |  |  | > 100 µM |  |  |  |  |  |  |  |
| Cc1cc([NH-])c([NH-])cc1C.[Cl][Pt+2][Cl] | 41.6 µM |  | 31.7 µM | > 100 µM | > 55.5 µM | > 83.5 µM |  | 32.9 µM |  | 5.07 µM |  |  |  | 16.9 µM | 39.2 µM | 16.8 µM | > 59.8 µM |  |  | 14.2 µM |
| Fc1ccc(C(OCCN2CCN(CCCc3ccccc3)CC2)c2ccc(F)cc2)cc1 | 19 µM | 12 µM | 15.8 µM | 16.4 µM | 13 µM | 15.7 µM | 10.1 µM |  | 11.3 µM |  |  |  | 18.7 µM |  |  |  |  |  |  |  |
| CCCCN(CCCC)Cc1cc(Nc2ccnc3cc(Cl)ccc23)ccc1O | > 100 µM | > 100 µM | > 100 µM | 13.6 µM | > 100 µM |  |  |  |  | 37.5 µM | 5.73 µM | 2.62 µM | 26.4 µM | > 100 µM | 2.83 µM | 9.03 µM |  |  |  |  |
| C[C@@]1(O)C2CC3CC1(c1ccccc1)CC(/C3=N/O)/C2=N\O (stereo partly drawn) | > 100 µM | > 100 µM | > 100 µM | > 100 µM | > 100 µM | > 100 µM |  | > 100 µM | > 100 µM |  |  |  |  |  |  |  |  |  |  |  |
| C=CCn1c(=O)c(C)cn(COCCO)c1=O | > 100 µM | > 100 µM |  | > 100 µM | > 100 µM | > 100 µM | > 100 µM |  | > 100 µM |  |  |  | > 100 µM |  |  |  |  |  |  |  |
| CCn1nc(C)c2c1C(=O)NCC(=O)N2 |  | > 100 µM | > 100 µM | > 100 µM | > 100 µM | > 100 µM | > 100 µM | > 100 µM |  |  |  |  | > 100 µM |  |  |  |  |  |  |  |
